This note sets out measurements from patent US6503749B2 (Aventis Pharma S.A., priority 1998, dated 2003).

T1 sequence (P53296 whole entry): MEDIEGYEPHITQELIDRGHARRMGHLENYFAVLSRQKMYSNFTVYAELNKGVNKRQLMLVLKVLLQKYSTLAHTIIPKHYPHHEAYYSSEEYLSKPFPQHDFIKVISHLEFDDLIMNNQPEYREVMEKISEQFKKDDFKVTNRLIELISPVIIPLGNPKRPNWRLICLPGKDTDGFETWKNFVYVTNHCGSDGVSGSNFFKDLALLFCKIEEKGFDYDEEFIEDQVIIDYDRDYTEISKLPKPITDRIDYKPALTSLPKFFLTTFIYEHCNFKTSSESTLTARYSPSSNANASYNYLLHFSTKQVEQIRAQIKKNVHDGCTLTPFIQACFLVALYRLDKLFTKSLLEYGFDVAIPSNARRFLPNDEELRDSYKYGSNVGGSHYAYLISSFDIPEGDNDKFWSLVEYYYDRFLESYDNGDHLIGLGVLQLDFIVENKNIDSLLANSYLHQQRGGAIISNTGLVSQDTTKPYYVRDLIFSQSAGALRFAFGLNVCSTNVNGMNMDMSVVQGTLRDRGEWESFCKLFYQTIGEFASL

One experiment concerns the target T1, APAT (acetyl-coenzyme A pregnenolone acetyltransferase) (Saccharomyces cerevisiae, UniProt P53296).
T1 construct: the semi-purified APAT transfers the acetate on 3β-ol, delta^4 or delta^5-steroids; endogenous in cells; host or cells: S. cerevisiae strain TGY73.4; endogenous enzyme purified in house from cell lysate (ZnCl2 precipitation, DEAE-Sephacel, Phenyl-Sepharose, Q-Sepharose, cholate-Sepharose)
The experiment in a line: Test of APAT enzyme activity (semi-purified APAT; substrate specificity and inhibition). Type of experiment: biochemical, S. cerevisiae. As to conditions: 30 μM of each steroid tested and 100 μM of [3H]acetyl-CoA; semi-purified APAT. On the procedure:
The pregnenolone is added in solution in 2 μl of tyloxapol (Sigma)/ethanol mixture (1:1) in a potassium phosphate buffer (20 mM) at pH 7.0. After incubation for 15 minutes at 30° C., the reaction is stopped by adding 2 ml of dichloromethane.
The steroids are extracted with dichloromethane, then separated by reversed-phase high-performance liquid chromatography (hereinafter: RP-HPLC) in isocratic elution conditions with acetonitrile in an Ultrasphere ODS column (Beckman) at 45° C. on an HP 1090 chromatograph (Hewlett-Packard) connected to a FLO-One 500 radiodetector (Packard) which permits measurement of the amount of pregnenolone [^3H]acetate formed.
One APAT unit is defined as the quantity of enzyme that produces 1 nmol of pregnenolone acetate per minute at 30° C., in the conditions described above.
For `CC(=O)[C@H]1CC[C@H]2[C@@H]3CCC4=C[C@@H](O)CC[C@]4(C)[C@H]3CC[C@]12C` [4-pregnen-3βol-20-one], the “Relative activity (%), Substrate a)” value is reported as 70%. Same read-out and setting: the result for `CC(=O)[C@H]1CC[C@H]2[C@@H]3CC[C@@H]4C[C@@H](O)CC[C@]4(C)[C@H]3CC[C@]12C` [5β-pregnan-3βol-20-one] reads 1.8%; that for `CC(=O)[C@@]1(O)CC[C@H]2[C@@H]3CC=C4C[C@@H](O)CC[C@]4(C)[C@H]3CC[C@@]21C` [17α-OH pregnenolone, 17α-hydroxypregnenolone], 89%; that for `C[C@]12CC[C@@H]3c4ccc(O)cc4CC[C@H]3[C@@H]1CC[C@@H]2O` [17β-oestradiol], 5%. Consider `C[C@]12CC[C@H](O)CC1=CC[C@@H]1[C@@H]2CC[C@]2(C)C(=O)CC[C@@H]12` [DHEA, dehydroepiandrosterone], for which the “Relative activity (%), Substrate a)” value worked out at 104%. On the same count and under the same terms, the result for `CC(=O)[C@H]1CC[C@H]2[C@@H]3CC=C4C[C@@H](O)CC[C@]4(C)[C@H]3CC[C@]12C` [Pregnenolone] reads 100%; that for `CC(C)CCC[C@@H](C)[C@H]1CC[C@H]2[C@@H]3CC=C4C[C@@H](O)CC[C@]4(C)[C@H]3CC[C@]12C` [cholesterol], 0.6%.

On to `CC(C)[C@@H](C)/C=C/[C@@H](C)[C@H]1CC[C@H]2C3=CC=C4C[C@@H](O)CC[C@]4(C)[C@H]3CC[C@]12C` [ergosterol], for which the “Relative activity (%), Substrate a)” value is 0.4%. `C[C@]12CC[C@@H]3c4ccc(O)cc4CC[C@H]3[C@@H]1CCC2=O` [oestrone]: the “Relative activity (%), Substrate a)” value was determined as 2.5%.

The same experiment, now with this note: 100 μM of each acyl donor and 30 μM of [3H]pregnenolone; semi-purified APAT.
With `CCCC(=O)SCCNC(=O)CCNC(=O)[C@H](O)C(C)(C)COP(=O)(O)OP(=O)(O)OC[C@H]1O[C@@H](n2cnc3c(N)ncnc32)[C@H](O)[C@@H]1OP(=O)(O)O` [butyryl-CoA], the “Relative activity (%), Substrate b)” value was 16%.

As to `CCCCCC(=O)SCCNC(=O)CCNC(=O)[C@H](O)C(C)(C)COP(=O)(O)OP(=O)(O)OC[C@H]1O[C@@H](n2cnc3c(N)ncnc32)[C@H](O)[C@@H]1OP(=O)(O)O` [hexanoyl-CoA], the “Relative activity (%), Substrate b)” value is on record as 18%. On the same count and under the same terms, then `CCCCCCCC/C=C\CCCCCCCC(=O)SCCNC(=O)CCNC(=O)[C@H](O)C(C)(C)COP(=O)(O)OP(=O)(O)OC[C@H]1O[C@@H](n2cnc3c(N)ncnc32)[C@H](O)[C@@H]1OP(=O)(O)O` [oleoyl-CoA], with “not detected”; and `CCC(=O)SCCNC(=O)CCNC(=O)[C@H](O)C(C)(C)COP(=O)(O)OP(=O)(O)OC[C@H]1O[C@@H](n2cnc3c(N)ncnc32)[C@H](O)[C@@H]1OP(=O)(O)O` [propionyl-CoA], with 33%.

Staying with this experiment, now noted: reagents of sulfhydryl groups.
`O=C(O)c1cc(SSc2ccc([N+](=O)[O-])c(C(=O)O)c2)ccc1[N+](=O)[O-]` [DTNB]: the “Inhibition of APAT activity” value is “strongly inhibited”.

Turning to `CCN1C(=O)C=CC1=O` [NEM], the “Inhibition of APAT activity” value is given as “strongly inhibited”.

Staying with this experiment, now noted: zinc chloride 1 mM.
For the compound `[Cl-].[Cl-].[Zn+2]` [zinc chloride], the “Inhibition of APAT activity” value was “complete”.
